According to ChEMBL document CHEMBL3045426, “Synthesis, Antiviral and Antibacterial Activities of Isatin Mannich Bases” (Med Chem Res, 2005):
Values after ≈ are worked out from the molar mass of the structure shown.

How the values were obtained:
Vibrio parahaemolyticus = assay: Antimicrobial activity against Vibrio parahaemolyticus after 18 to 20 hr by agar dilution method; assay type: functional
Plesiomonas = assay: Antimicrobial activity against Plesiomonas after 18 to 20 hr by agar dilution method; assay type: functional
Shigella sonnei = assay: Antimicrobial activity against Shigella sonnei after 18 to 20 hr by agar dilution method; assay type: functional
Priestia megaterium = assay: Antimicrobial activity against Bacillus megaterium after 18 to 20 hr by agar dilution method; assay type: functional
Vibrio mimicus = assay: Antimicrobial activity against Vibrio mimicus after 18 to 20 hr by agar dilution method; assay type: functional
Escherichia coli = assay: Antimicrobial activity against Escherichia coli NCTC 10418 after 18 to 20 hr by agar dilution method; assay type: functional
[1] = Cytotoxicity against Homo sapiens (human) MT4 cells after 5 days by MTT assay; assay type: cell-based
Pseudomonas aeruginosa = assay: Antimicrobial activity against Pseudomonas aeruginosa after 18 to 20 hr by agar dilution method; assay type: functional
Salmonella typhimurium = assay: Antimicrobial activity against Salmonella enterica subsp. enterica serovar Typhimurium after 18 to 20 hr by agar dilution method; assay type: functional
Edwardsiella tarda = assay: Antimicrobial activity against Edwardsiella tarda after 18 to 20 hr by agar dilution method; assay type: functional
Vibrio cholerae [2] = assay: Antimicrobial activity against Vibrio cholerae 01 after 18 to 20 hr by agar dilution method; assay type: functional; conditions: 1
Salmonella paratyphi = assay: Antimicrobial activity against Salmonella enterica subsp. enterica serovar Paratyphi A after 18 to 20 hr by agar dilution method; assay type: functional
Vibrio fluvialis = assay: Antimicrobial activity against Vibrio fluvialis after 18 to 20 hr by agar dilution method; assay type: functional
Vibrio cholerae [3] = assay: Antimicrobial activity against Vibrio cholerae 0139 after 18 to 20 hr by agar dilution method; assay type: functional; conditions: 139
[4] = tested on: Mycobacterium tuberculosis; assay: Antimycobacterial activity against Mycobacterium tuberculosis H37Rv ATCC 27294 at 6.25 ug/ml by MABA; assay type: functional
[5] = tested on: Human immunodeficiency virus 1; assay: Antiviral activity against Human immunodeficiency virus 1 IIIB infected MT4 cells assessed as inhibition of virus-induced cytopathicity after 5 days by MTT assay; assay type: functional, organism-based; conditions: MT4, 120 h
Proteus mirabilis = assay: Antimicrobial activity against Proteus mirabilis after 18 to 20 hr by agar dilution method; assay type: functional
Salmonella enteritidis = assay: Antimicrobial activity against Salmonella enterica subsp. enterica serovar Enteritidis after 18 to 20 hr by agar dilution method; assay type: functional
[6] = tested on: Human immunodeficiency virus 1; assay: Antiviral activity against Human immunodeficiency virus 1 IIIB infected MT4 cells assessed as protection against viral infection after 5 days by MTT assay; assay type: functional; set-up: concentration or dose not given beside the values
[7] = tested on: Human immunodeficiency virus 1; assay: Antiviral activity against Human immunodeficiency virus 1 IIIB infected CEM cells assessed as inhibition of virus-induced cytopathicity after 6 days by XTT assay; assay type: functional, organism-based; conditions: CCRF-CEM, 144 h
Enterobacter = assay: Antimicrobial activity against Enterobacter after 18 to 20 hr by agar dilution method; assay type: functional
Klebsiella pneumoniae [8] = assay: Antimicrobial activity against Klebsiella pneumoniae subsp. ozaenae after 18 to 20 hr by agar dilution method; assay type: functional
[9] = Cytotoxicity against Homo sapiens (human) CEM cells after 5 days by MTT assay; assay type: cell-based; conditions: CEM cells (CCRF-CEM)
Citrobacter freundii = assay: Antimicrobial activity against Citrobacter freundii after 18 to 20 hr by agar dilution method; assay type: functional
[10] = tested on: Human immunodeficiency virus 1; assay: Antiviral activity against Human immunodeficiency virus 1 IIIB infected CEM cells assessed as protection against viral infection after 6 days by XTT assay; assay type: functional, CCRF-CEM; set-up: concentration or dose not given beside the values
Proteus vulgaris = assay: Antimicrobial activity against Proteus vulgaris after 18 to 20 hr by agar dilution method; assay type: functional
Hepatitis C virus = assay: Antiviral activity against Hepatitis C virus BM4-5 infected in Huh7 cells assessed as inhibition of viral RNA replication by phosphor screening method; assay type: functional, Hepacivirus hominis, Huh-7
Klebsiella pneumoniae [11] = assay: Antimicrobial activity against Klebsiella pneumoniae after 18 to 20 hr by agar dilution method; assay type: functional
Morganella morganii = assay: Antimicrobial activity against Morganella morganii after 18 to 20 hr by agar dilution method; assay type: functional
Shigella boydii = assay: Antimicrobial activity against Shigella boydii after 18 to 20 hr by agar dilution method; assay type: functional
Staphylococcus aureus = assay: Antimicrobial activity against Staphylococcus aureus after 18 to 20 hr by agar dilution method; assay type: functional
[12] = Cytotoxicity against Homo sapiens (human) HuH7 cells assessed as cell growth at 50 ug/ml after 3 days by Neutral red assay; assay type: cell-based, Huh-7; conditions: read-out: Activity
Salmonella typhi = assay: Antimicrobial activity against Salmonella enterica subsp. enterica serovar Typhi after 18 to 20 hr by agar dilution method; assay type: functional

SMILES | MIC (Vibrio parahaemolyticus) [µg/mL] | MIC (Plesiomonas) [µg/mL] | MIC (Shigella sonnei) [µg/mL] | MIC (Priestia megaterium) [µg/mL] | MIC (Vibrio mimicus) [µg/mL] | MIC (Escherichia coli) [µg/mL] | CC50 at 120 h [1] [µg/mL] | MIC (Pseudomonas aeruginosa) [µg/mL] | MIC (Salmonella typhimurium) [µg/mL] | MIC (Edwardsiella tarda) [µg/mL] | MIC (Vibrio cholerae [2]) [µg/mL] | MIC (Salmonella paratyphi) [µg/mL] | MIC (Vibrio fluvialis) [µg/mL] | MIC (Vibrio cholerae [3]) [µg/mL] | inhibition at 6.25 µg/mL [4] [%] | EC50 [5] [µg/mL] | MIC (Proteus mirabilis) [µg/mL] | MIC (Salmonella enteritidis) [µg/mL] | Activity [6] [%] | EC50 [7] [µg/mL] | other results
COc1cc(Cc2cnc(/N=C3\C(=O)N(CN4CCN(c5ccc(Cl)cc5)CC4)c4ccc(Cl)cc43)nc2N)cc(OC)c1OC | 2.44 (≈ 3.68 µM) | 19.5 (≈ 29.5 µM) | 1250 (≈ 1890 µM) | 1250 (≈ 1890 µM) | 9.76 (≈ 14.7 µM) | 1250 (≈ 1890 µM) | 38.6 (≈ 58.3 µM) | 2500 (≈ 3770 µM) | 1250 (≈ 1890 µM) | 625 (≈ 943 µM) | 4.88 (≈ 7.37 µM) | 625 (≈ 943 µM) | 1250 (≈ 1890 µM) | 1250 (≈ 1890 µM) | 40 | > 38.6 | 1250 (≈ 1890 µM) | 1250 (≈ 1890 µM) | 32.6 | > 40.1 | MIC (Enterobacter): 1250 µg/mL (≈ 1890 µM); MIC (Klebsiella pneumoniae [8]): 1250 µg/mL (≈ 1890 µM); CC50 at 120 h [9]: 40.1 µg/mL (≈ 60.5 µM); MIC (Citrobacter freundii): 1250 µg/mL (≈ 1890 µM); Activity [10]: 22.64%; MIC (Proteus vulgaris): 1250 µg/mL (≈ 1890 µM); inhibition (INH) (Hepatitis C virus): 99%; MIC (Klebsiella pneumoniae [11]): 1250 µg/mL (≈ 1890 µM); MIC (Morganella morganii): 1250 µg/mL (≈ 1890 µM); MIC (Shigella boydii): 39.1 µg/mL (≈ 59 µM); MIC (Staphylococcus aureus): 1250 µg/mL (≈ 1890 µM); viability at 72 h, 50 ug/ml [12]: 56%; MIC (Salmonella typhi): 1250 µg/mL (≈ 1890 µM)
COc1cc(Cc2cnc(/N=C3\C(=O)N(CN4CCN(C(=O)c5ccc(F)cc5)CC4)c4ccc(Cl)cc43)nc2N)cc(OC)c1OC | 4.88 (≈ 7.24 µM) | 9.76 (≈ 14.5 µM) | 2500 (≈ 3710 µM) | 2500 (≈ 3710 µM) | 2.44 (≈ 3.62 µM) | 2500 (≈ 3710 µM) | 60.6 (≈ 89.9 µM) | 2500 (≈ 3710 µM) | 2500 (≈ 3710 µM) | 2500 (≈ 3710 µM) | 39.1 (≈ 57.9 µM) | 625 (≈ 927 µM) | 2500 (≈ 3710 µM) | 1250 (≈ 1850 µM) | 38 | > 60.6 | 2500 (≈ 3710 µM) | 2500 (≈ 3710 µM) | 30.2 | > 51 | MIC (Enterobacter): 625 µg/mL (≈ 927 µM); MIC (Klebsiella pneumoniae [8]): 2500 µg/mL (≈ 3710 µM); CC50 at 120 h [9]: 51 µg/mL (≈ 75.7 µM); MIC (Citrobacter freundii): 2500 µg/mL (≈ 3710 µM); Activity [10]: 23.38%; MIC (Proteus vulgaris): 2500 µg/mL (≈ 3710 µM); inhibition (INH) (Hepatitis C virus): 91%; MIC (Klebsiella pneumoniae [11]): 2500 µg/mL (≈ 3710 µM); MIC (Morganella morganii): 2500 µg/mL (≈ 3710 µM); MIC (Shigella boydii): 39.1 µg/mL (≈ 57.9 µM); MIC (Staphylococcus aureus): 2500 µg/mL (≈ 3710 µM); viability at 72 h, 50 ug/ml [12]: 71%; MIC (Salmonella typhi): 2500 µg/mL (≈ 3710 µM)
COc1cc(Cc2cnc(/N=C3\C(=O)N(CN4CCN(C)CC4)c4ccc(Cl)cc43)nc2N)cc(OC)c1OC | 0.61 (≈ 1.08 µM) | 4.88 (≈ 8.62 µM) | 1250 (≈ 2210 µM) | 1250 (≈ 2210 µM) | 1.22 (≈ 2.16 µM) | 1250 (≈ 2210 µM) | 80.7 (≈ 143 µM) | 1250 (≈ 2210 µM) | 1250 (≈ 2210 µM) | 625 (≈ 1100 µM) | 1.22 (≈ 2.16 µM) | 156 (≈ 276 µM) | 1250 (≈ 2210 µM) | 312 (≈ 552 µM) | 35 | > 80.7 | 1250 (≈ 2210 µM) | 1250 (≈ 2210 µM) | 48.6 | > 88 | MIC (Enterobacter): 312 µg/mL (≈ 552 µM); MIC (Klebsiella pneumoniae [8]): 1250 µg/mL (≈ 2210 µM); CC50 at 120 h [9]: 88 µg/mL (≈ 155 µM); MIC (Citrobacter freundii): 1250 µg/mL (≈ 2210 µM); Activity [10]: 21.09%; MIC (Proteus vulgaris): 1250 µg/mL (≈ 2210 µM); inhibition (INH) (Hepatitis C virus): 71%; MIC (Klebsiella pneumoniae [11]): 1250 µg/mL (≈ 2210 µM); MIC (Morganella morganii): 1250 µg/mL (≈ 2210 µM); MIC (Shigella boydii): 19.5 µg/mL (≈ 34.5 µM); MIC (Staphylococcus aureus): 1250 µg/mL (≈ 2210 µM); viability at 72 h, 50 ug/ml [12]: 83%; MIC (Salmonella typhi): 1250 µg/mL (≈ 2210 µM)
COc1cccc(N2CCN(CN3C(=O)/C(=N\c4ncc(Cc5cc(OC)c(OC)c(OC)c5)c(N)n4)c4cc(Cl)ccc43)CC2)c1 | 2.44 (≈ 3.71 µM) | 0.61 (≈ 0.927 µM) | 625 (≈ 950 µM) | 1250 (≈ 1900 µM) | 0.61 (≈ 0.927 µM) | 2500 (≈ 3800 µM) | 32.6 (≈ 49.5 µM) | 2500 (≈ 3800 µM) | 2500 (≈ 3800 µM) | 1250 (≈ 1900 µM) | 1.22 (≈ 1.85 µM) | 156 (≈ 237 µM) | 1250 (≈ 1900 µM) | 312 (≈ 475 µM) | 33 | > 32.6 | 2500 (≈ 3800 µM) | 1250 (≈ 1900 µM) | 10.7 | > 23.3 | MIC (Enterobacter): 1250 µg/mL (≈ 1900 µM); MIC (Klebsiella pneumoniae [8]): 1250 µg/mL (≈ 1900 µM); CC50 at 120 h [9]: 23.3 µg/mL (≈ 35.4 µM); MIC (Citrobacter freundii): 1250 µg/mL (≈ 1900 µM); Activity [10]: 21.93%; MIC (Proteus vulgaris): 1250 µg/mL (≈ 1900 µM); inhibition (INH) (Hepatitis C virus): 100%; MIC (Klebsiella pneumoniae [11]): 625 µg/mL (≈ 950 µM); MIC (Morganella morganii): 2500 µg/mL (≈ 3800 µM); MIC (Shigella boydii): 0.61 µg/mL (≈ 0.927 µM); MIC (Staphylococcus aureus): 156 µg/mL (≈ 237 µM); viability at 72 h, 50 ug/ml [12]: 71%; MIC (Salmonella typhi): 1250 µg/mL (≈ 1900 µM)
